Measurements from publication PMC10917278, “Structural insights into the modulation Of SOD1 aggregation By a fungal metabolite Phialomustin-B: Therapeutic potential in ALS” (PLOS ONE, 2024).

Molecular target: T1, SOD1^K9F (Homo sapiens, UniProt P00441, K10F)
T1 construct: His-tag (cleaved yes); made in house; host or cells: E. coli BL21-DE3
Assay: MST binding assay, site-specific mutant SOD1^K9F
Settings: PBS buffer, mutant 25 nM, PB 30.5 nM to 250 μM, 25 °C
Method: To further validate the binding of PB to SOD1, site-directed mutagenesis was performed for the interacting residues at the binding sites of PB. The point mutations generated on the SOD1 protein are K9F, G10P, L42R, and A123F. The MST assay was carried out on these mutants against PB (Fig 5). The dose-response curve with the highest signal-to-noise ratio, high response amplitude, and lowest error rate was selected for measuring the binding affinity (Kd) value. […] Binding at the electrostatic loop is affected majorly by mutating residues at A123 to phenylalanine and L42 to arginine. […] Taken together, the binding affinities of these mutants confirm the ligand bindings at these sites of SOD1 are specific.
Fig 5 MST interaction analysis of fluorescently labeled SOD1 mutants against PB. The binding of PB to fluorescently Cys-labeled SOD1- variants is quantified in PBS buffer. The concentration of PB varied from 30.5 nM to 250 μM, while the respective mutants were kept constant at 25 nM. MST experiments were conducted at 20% LED excitation and medium MST power at 25 °C. […] Error bars indicate the standard error of the mean, SEM (n = 3). […] The ligand PB is printed only in the titles of panels a-d, so the mutant names are used as the substance labels.
Binding studies were performed for SOD1^WT and the ligands using microscale thermophoresis (MST). […]

T1 sequence (P00441 whole entry K10F): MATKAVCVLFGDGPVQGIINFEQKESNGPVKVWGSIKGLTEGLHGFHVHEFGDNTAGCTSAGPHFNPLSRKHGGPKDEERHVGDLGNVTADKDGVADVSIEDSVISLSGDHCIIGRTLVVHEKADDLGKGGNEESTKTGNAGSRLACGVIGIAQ

Question: Which “binding affinity Kd” value does the source give for CCCC[C@H](C)/C=C(C)/C=C/C(=O)O [PB, (S, 2E, 4E)-4,6-dimethyldeca-2,4-dienoic acid] here?
Answer: Its value is “no binding”.
